The assay addresses Trypsin (Homo sapiens, UniProt P07477+P07478+P35030). The experiment in a line: Competitive inhibition of trypsin (unknown origin) using […] as substrate incubated for 20 mins prior to substrate addition by Dixon plot/ Lineweaver-Burk plot analysis. The class given is protein assay.

The term Ki denotes the dissociation constant of the complex between target and ligand, obtained from inhibition or displacement. Take `O=S(=O)(F)Cc1ccccc1` [PHENYLMETHYLSULFONYLFLUORIDE]: the inhibition constant Ki was determined as 10.01 µM.
The compound `CCCCCCCCC(CC)COC(=O)c1ccccc1C(=O)OCC(CC)CCCCCCCC` (configuration not stated) came in with a Ki of 12.1 µM.

The values above are taken from ChEMBL document CHEMBL2429800, “A new trypsin inhibitory phthalic acid ester from Heliotropium strigosum” (Med Chem Res, 2013).
